Like-named read-outs stand apart in the source and are kept apart here. Some results are limits rather than exact numbers.

One experiment deals with HO-1. As to the kind of experiment: Nrf2 target gene induction, MDA-MB-435 (qPCR): HO-1. The following applies: Homo sapiens; MDA-MB-435, 250 nM, 16 hours, mRNA by qPCR. Format: cell-based. How it is done: (§1) Nrf2 target gene induction. MDA-MB-435 human melanoma cells were treated with vehicle (DMSO) or the indicated compounds and concentrations for 16 hours. HO-1, thioredoxin reductase-1 (TrxR1), γ-glutamylcysteine synthetase (γ-GCS), and ferritin heavy chain mRNA levels were quantified using qPCR and were normalized relative to a DMSO-treated sample run in parallel. Values are averages of duplicate wells. Primer sequences are as follows.

In a further experiment the test system is γ-GCS. Description: Nrf2 target gene induction, MDA-MB-435 (qPCR): γ-GCS. Format: cell-based. The following applies: Homo sapiens; MDA-MB-435, 250 nM, 16 hours, mRNA by qPCR. The method, then:
as §1

Experiment [1] deals with NO production in RAW264.7 macrophages. Description: Inhibition of NO production in IFNγ-treated RAW264.7 macrophages (Griess reagent). The following applies: then 20 ng/ml IFNγ for 24 hours. Format: cell-based, mouse. How it is done:
(§2) FIGS. 1-4, 6 and 8. Inhibition of NO Production. RAW264.7 macrophages were pre-treated with DMSO or drugs at various concentrations (nM) for 2 hours, then treated with 20 ng/ml IFNγ for 24 hours. NO concentration in media was determined using a Griess reagent system; cell viability was determined using WST-1 reagent.
(§3) Nitric Oxide production and cell viability. RAW264.7 macrophages were pre-treated with DMSO or drugs for 2 hours, then treated with recombinant mouse IFNγ (Sigma) for 24 hours. NO concentration in media was determined using the Griess reagent system (Promega). Cell viability was determined using WST-1 reagent (Roche).

In another experiment the test system is NQO1. As to the kind of experiment: Nrf2 target gene induction, MDA-MB-435 (qPCR): NQO1. The class given is cell-based. The note with it: Homo sapiens; MDA-MB-435, 250 nM, 16 hours, mRNA by qPCR.
For the next experiment, the system named is RAW264.7 macrophages. Description: Cell viability of RAW264.7 macrophages (WST-1 reagent). The class given is cell-based, mouse. The note with it: cell viability, RAW264.7, 20 ng/ml IFNγ 24 hours, WST-1 reagent, read-out: RAW264.7 (20 ng/ml IFNγ) WST-1 IC50. The method, then:
as §2, §3

Where [2] appears, read: Mus musculus, RAW264.7, RAW264.7 macrophages pre-treated 2 hours.

As for `COC[C@]12CCC(C)(C)C[C@H]1[C@H]1C(=O)C[C@@H]3[C@@]4(C)C=C(C#N)C(=O)C(C)(C)[C@@H]4CC[C@@]3(C)[C@]1(C)CC2` [Compound 63228, (4aR,6aR,6bR,8aS,12aS,12bR,14aR,14bR)-8a-(methoxymethyl)-4,4,6a,6b,11,11,14b-heptamethyl-3,13-dioxo-3,4,4a,5,6,6a,6b,7,8,8a,9,10,11,12,12a,12b,13,14,14a,14b-icosahydropicene-2-carbonitrile], the fold induction at 0.25 µM in the experiment on HO-1 came out at 2; with γ-GCS, 4; in the experiment on NQO1, 2. Besides, the IC50 is roughly 25 nM in experiment [1] (setting [2]) and 200 nM with RAW264.7 macrophages (Mus musculus, RAW264.7, 24 h).

On to `CC1(C)CC[C@@]23CC[C@@]4(C)[C@]5(C)CC[C@H]6C(C)(C)C(=O)C(C#N)=C[C@]6(C)[C@H]5CC(=O)[C@]4(OC2CO)[C@@H]3C1` (some centres unmarked) [Compound 63224], for which the fold induction at 0.25 µM came out at 4 with HO-1, 8 with γ-GCS and 2.5 in the experiment on NQO1. The IC50 in experiment [1] (setting [2]) was roughly 20 nM; in the experiment with RAW264.7 macrophages (Mus musculus, RAW264.7, 24 h), greater than 200 nM.

Consider `CC1(C)CC[C@]2(CNS(C)(=O)=O)CC[C@]3(C)[C@H](C(=O)CC4[C@@]5(C)C=C(C#N)C(=O)C(C)(C)C5CC[C@]43C)[C@@H]2C1` (stereo partly drawn) [Compound 63220, N-(((4aS,6aR,6bR,12aR,14aR,14bS)-11-cyano-2,2,6a,6b,9,9,12a-heptamethyl-10,14-dioxo-1,2,3,4,4a,5,6,6a,6b,7,8,8a,9,10,12a,12b,13,14,14a,14b-icosahydropicen-4a-yl)methyl)methanesulfonamide], for which the fold induction at 0.25 µM in the experiment with HO-1 was found to be 3; with γ-GCS it was 6; in the experiment on NQO1 it was 2. Also, the IC50 in experiment [1] (setting [2]) is roughly 15 nM; with RAW264.7 macrophages (Mus musculus, RAW264.7, 24 h) it was greater than 200 nM.

For the compound `Cc1cc(CNC[C@]23CCC(C)(C)C[C@H]2[C@H]2C(=O)C[C@@H]4[C@@]5(C)C=C(C#N)C(=O)C(C)(C)[C@@H]5CC[C@@]4(C)[C@]2(C)CC3)no1` [Compound 63232, (4aR,6aR,6bR,8aS,12aS,12bR,14aR,14bR)-4,4,6a,6b,11,11,14b-heptamethyl-8a-(((5-methylisoxazol-3-yl)methylamino)methyl)-3,13-dioxo-3,4,4a,5,6,6a,6b,7,8,8a,9,10,11,12,12a,12b,13,14,14a,14b-icosahydropicene-2-carbonitrile], the fold induction at 0.25 µM in the experiment on HO-1 is 5; in the experiment with γ-GCS, 13.6; in the experiment on NQO1, 3.8. Besides, the IC50 in experiment [1] (setting [2]) was roughly 20 nM; with RAW264.7 macrophages (Mus musculus, RAW264.7, 24 h), greater than 200 nM.

Turning to `COC(=O)C[C@]12CCC(C)(C)C[C@H]1[C@H]1C(=O)C=C3[C@@]4(C)C=C(C#N)C(=O)C(C)(C)[C@@H]4CC[C@@]3(C)[C@]1(C)CC2` [Compound 402-50, methyl-2-((4aR,6aR,6bS,8aR,12aS,14aR,14bS)-11-cyano-2,2,6a,6b,9,9,12a-heptamethyl-10,14-dioxo-1,2,3,4,4a,5,6,6a,6b,7,8,8a,9,10,12a,14,14a,14b-octadecahydropicen-4a-yl)acetate], the IC50 is roughly 2.5 nM in experiment [1] (setting [2]) and 75 nM in the experiment on RAW264.7 macrophages (Mus musculus, RAW264.7, 24 h).

For `CC1(C)CC[C@]2([C@H]3COCO3)CC[C@]3(C)[C@H](C(=O)C[C@@H]4[C@@]5(C)C=C(C#N)C(=O)C(C)(C)[C@@H]5CC[C@]43C)[C@@H]2C1` [Compound 63285, (4aR,6aR,6bR,8aS,12aS,12bR,14aR,14bR)-8a-((S)-1,3-dioxolan-4-yl)-4,4,6a,6b,11,11,14b-heptamethyl-3,13-dioxo-3,4,4a,5,6,6a,6b,7,8,8a,9,10,11,12,12a,12b, 13,14,14a,14b-icosahydropicene-2-carbonitrile], the IC50 in experiment [1] (setting [2]) was roughly 15 nM; in the experiment with RAW264.7 macrophages (Mus musculus, RAW264.7, 24 h), greater than 200 nM.

In the case of `CC(=O)OC[C@]12CCC(C)(C)C(C#N)[C@H]1[C@H]1C(=O)CC3[C@@]4(C)C=CC(=O)C(C)(C)[C@@H]4CC[C@@]3(C)[C@]1(C)CC2` (stereo partly drawn) [Compound 402-65, ((4aS,6aR,6bR,8aR,12aR,14aR,14bS)-1-cyano-2,2,6a,6b,9,9,12a-heptamethyl-10,14-dioxo-1,2,3,4,4a,5,6,6a,6b,7,8,8a,9,10,12a,12b,13,14,14a,14b-icosahydropicen-4a-yl)methyl acetate], the IC50 was roughly 12.5 nM in experiment [1] (setting [2]) and greater than 200 nM in the experiment on RAW264.7 macrophages (Mus musculus, RAW264.7, 24 h).

For the compound `CC1(C)CC[C@]2(CC(=O)O)CC[C@]3(C)[C@H](C(=O)C=C4[C@@]5(C)C=C(C#N)C(=O)C(C)(C)[C@@H]5CC[C@]43C)[C@@H]2C1` [Compound 402-54, 2-((4aR,6aR,6bS,8aR,12aS,14aR,14bS)-11-cyano-2,2,6a,6b,9,9,12a-heptamethyl-10,14-dioxo-1,2,3,4,4a,5,6,6a,6b,7,8,8a,9,10,12a,14,14a,14b-octadecahydropicen-4a-yl)acetic acid], the IC50 in experiment [1] (setting [2]) is roughly 6 nM; in the experiment on RAW264.7 macrophages (Mus musculus, RAW264.7, 24 h) it was greater than 200 nM.

`CC1(C)CC[C@]2(CSc3ccccc3)CC[C@]3(C)[C@H](C(=O)C[C@@H]4[C@@]5(C)C=C(C#N)C(=O)C(C)(C)[C@@H]5CC[C@]43C)[C@@H]2C1` [Compound 63235, (4aR,6aR,6bR,8aS,12aS,12bR,14aR,14bR)-4,4,6a,6b,11,11,14b-heptamethyl-3,13-dioxo-8a-(phenylthiomethyl)-3,4,4a,5,6,6a,6b,7,8,8a,9,10,11,12,12a,12b,13,14,14a,14b-icosahydropicene-2-carbonitrile]: the IC50 in experiment [1] (setting [2]) was roughly 80 nM; with RAW264.7 macrophages (Mus musculus, RAW264.7, 24 h), roughly 150 nM.

`CC1(C)CC[C@]2(COC(=O)c3ccccc3)CC[C@]3(C)[C@H](C(=O)C[C@@H]4[C@@]5(C)C=C(C#N)C(=O)C(C)(C)[C@@H]5CC[C@]43C)[C@@H]2C1` [Compound 63298, ((4aS,6aR,6bR,8aR,12aR,12bR,14aR,14bS)-11-cyano-2,2,6a,6b,9,9,12a-heptamethyl-10,14-dioxo-1,2,3,4,4a,5,6,6a,6b,7,8,8a,9,10,12a,12b,13,14,14a,14b-icosahydropicen-4a-yl)methyl benzoate]: the IC50 in experiment [1] (setting [2]) was roughly 80 nM; with RAW264.7 macrophages (Mus musculus, RAW264.7, 24 h), roughly 200 nM.

On to `CC1(C)CC[C@]2(C3CO3)CC[C@]3(C)[C@H](C(=O)C[C@@H]4[C@@]5(C)C=C(C#N)C(=O)C(C)(C)[C@@H]5CC[C@]43C)[C@@H]2C1` (single isomer, unassigned) [Compound 63286], for which the IC50 in experiment [1] (RAW264.7 macrophages pre-treated 2 hours) is roughly 13 nM; with RAW264.7 macrophages, greater than 200 nM.

`CC1(C)CC[C@]2(CNCC(F)(F)F)CC[C@]3(C)[C@H](C(=O)C[C@@H]4[C@@]5(C)C=C(C#N)C(=O)C(C)(C)[C@@H]5CC[C@]43C)[C@@H]2C1` [Compound 63273, (4aR,6aR,6bR,8aS,12aS,12bR,14aR,14bR)-4,4,6a,6b,11,11,14b-heptamethyl-3,13-dioxo-8a-((2,2,2-trifluoroethylamino)methyl)-3,4,4a,5,6,6a,6b,7,8,8a,9,10,11,12,12a,12b,13,14,14a,14b-icosahydropicene-2-carbonitrile]: the IC50 in experiment [1] (setting [2]) is roughly 80 nM; in the experiment on RAW264.7 macrophages (Mus musculus, RAW264.7, 24 h) it was roughly 200 nM.

In the case of `CC1(C)CC[C@]2(CS(=O)(=O)c3ccccc3)CC[C@]3(C)[C@H](C(=O)C[C@@H]4[C@@]5(C)C=C(C#N)C(=O)C(C)(C)[C@@H]5CC[C@]43C)[C@@H]2C1` [Compound 63266, (4aR,6aR,6bR,8aS,12aS,12bR,14aR,14bR)-4,4,6a,6b,11,11,14b-heptamethyl-3,13-dioxo-8a-(phenylsulfonylmethyl)-3,4,4a,5,6,6a,6b,7,8,8a,9,10,11,12,12a,12b,13,14,14a,14b-icosahydropicene-2-carbonitrile], the IC50 in experiment [1] (setting [2]) is roughly 30 nM; with RAW264.7 macrophages (Mus musculus, RAW264.7, 24 h) it was greater than 200 nM.

`CC1(C)CC[C@]2(CO)CC[C@]3(C)[C@H](C(=O)CC4[C@@]5(C)C=C(C#N)C(=O)C(C)(C)[C@@H]5CC[C@]43C)[C@@H]2C1` (stereo partly drawn) [Compound 402-63, (4aR,6aR,6bR,8aS,12aS,12bR,14bR)-8a-(hydroxymethyl)-4,4,6a,6b,11,11,14b-heptamethyl-3,13-dioxo-3,4,4a,5,6,6a,6b,7,8,8a,9,10,11,12,12a,12b,13,14,14a,14b-icosahydropicene-2-carbonitrile]: the IC50 in experiment [1] (setting [2]) was roughly 9 nM; with RAW264.7 macrophages (Mus musculus, RAW264.7, 24 h), greater than 200 nM.

For `CC1(C)CC[C@]2(C[S+]([O-])c3ccccc3)CC[C@]3(C)[C@H](C(=O)C[C@@H]4[C@@]5(C)C=C(C#N)C(=O)C(C)(C)[C@@H]5CC[C@]43C)[C@@H]2C1` (stereo partly drawn) [Compound 63255, (4aR,6aR,6bR,8aS,12aS,12bR,14aR,14bR)-4,4,6a,6b,11,11,14b-heptamethyl-3,13-dioxo-8a-(phenylsulfinylmethyl)-3,4,4a,5,6,6a,6b,7,8,8a,9,10,11,12,12a,12b,13,14,14a,14b-icosahydropicene-2-carbonitrile], the IC50 in experiment [1] (setting [2]) is roughly 50 nM; in the experiment with RAW264.7 macrophages (Mus musculus, RAW264.7, 24 h), greater than 200 nM.

For the compound `C#C[C@]12CCC(C)(C)C[C@H]1[C@H]1C(=O)C[C@@H]3[C@@]4(C)C=C(C#N)C(=O)C(C)(C)[C@@H]4CC[C@@]3(C)[C@]1(C)CC2` [Compound 63303, (4aR,6aR,6bR,8aS,12aS,12bR,14aR,14bR)-8a-ethynyl-4,4,6a,6b,11,11,14b-heptamethyl-3,13-dioxo-3,4,4a,5,6,6a,6b,7,8,8a,9,10,11,12,12a,12b,13,14,14a,14b-icosahydropicene-2-carbonitrile], the IC50 is roughly 18 nM in experiment [1] (setting [2]) and roughly 150 nM with RAW264.7 macrophages (Mus musculus, RAW264.7, 24 h).

(Values after patent publication US8394967B2, “Antioxidant inflammation modulators: C-17 homologated oleanolic acid derivatives” (Reata Pharmaceuticals, Inc., priority 2008, dated 2013).)
